Literature values, collected in US12257290B2, “PIC1 inhibition of myeloperoxidase oxidative activity in an animal model” (priority 2018, dated 2025).

Conditions: intranasal administration; animal models; cited from earlier work

DNase
symptoms of TRALI: reduced symptoms of TRALI
